According to paper PMC10348910, “Epigenetic reprogramming of cell cycle genes by ACK1 promotes breast cancer resistance to CDK4/6 inhibitor” (Oncogene, 2023):

Columns and labels:
[1] = tested on: Palbociclib-resistant HCC-1395; experiment: proliferation assay, trypan blue exclusion; type: cell-based; settings: palbociclib-resistant HCC-1395, 96 h
Description: (§1) A–F Breast cancer cells were treated with either vehicle or (R)-9b for 48 h; cells were harvested and processed for cell cycle analysis using propidium iodide staining, followed by flow cytometry. G BT549 and H MDA-MB-468 cells were treated with varying drug concentrations of palbociclib or (R)-9b for 96 h and the cell viability assessed using trypan blue exclusion method. I BT549, and J MDA-MB-468 cells were treated with 1 µM palbociclib or (R)-9b for 48 h and subjected to cell cycle analysis using propidium iodide staining, followed by flow-cytometry. Palbociclib-resistant MDA-MB-231 (K) and HCC-1395 (L) were generated and treated with varying drug concentrations of palbociclib or (R)-9b for 96 h and the cell viability assessed using trypan blue exclusion method.
(§2) The mid-G1 phase is governed by CDK4 and CDK6, two serine/threonine kinases the catalytic activity of which is modulated by D-type cyclins (D1, D2, and D3). […]
(§3) For proliferation assay, 5 × 10^4 cells were plated in 6-well plate and treated with either vehicle (DMSO) or varying concentrations of (R)-9b or palbociclib in complete media for 96 h and number of viable cells were counted by trypan blue exclusion assay. […] The cells were acquired using the BD FACSCalibur machine (BD Biosciences) and data was analyzed using FlowJo software. […] The data were analyzed using FlowJo software.

[2] = tested on: Palbociclib-resistant MDA-MB-231; experiment: proliferation assay, trypan blue exclusion; type: cell-based; settings: palbociclib-resistant MDA-MB-231, 96 h
Description: as §1, §2, §3

[3] = tested on: pY88-H4 marks at CDC20, CCNB1 and CCNB2; experiment: ChIP-qPCR with pY88-H4 antibody at CDC20, CCNB1 and CCNB2 loci; type: cell-based; settings: breast cancer cell lines
Description: Fig. 4 ACK1 epigenetically modifies the chromatin landscape by depositing pY88-H4 activating marks, regulating cell cycle genes. A Breast cancer cell lines were treated with (R)-9b overnight and the cell lysates were subjected to immunoprecipitation using pY88-H4 antibody, followed by immunoblotting with H4 antibody. Lysates were also subjected to immunoblotting with total H4 and Actin antibodies, shown in the lower panels. […] B Venn diagrams summarizing the overlap between sites bound by pY88-H4 in vehicle treated and (R)-9b treated MDA-MB-453 cells. […] Breast cancer cells were subjected to ChIP using pY88-H4 antibody followed by qPCR for (D) CCNB1, (E) CCNB2, and (F) CDC20 genes. […]
Cell pellets were resuspended in RLB buffer and sonicated and the soluble chromatin was incubated with antibodies and Protein-G/A magnetic beads. […] The size and quality of the library was evaluated using the Agilent BioAnalyzer (Agilent Technologies, Inc., Santa Clara, CA), and the library was quantitated with the Kapa Library Quantification Kit. Each enriched DNA library was then sequenced on an Illumina NextSeq 500 sequencer to generate 40–50 million 75-base paired-end reads (Illumina, Inc., San Diego, CA). […]
Real-time quantitative PCR analyses were performed using the ABI PRISM 7900HT Sequence Detection System (Applied Biosystems) as described earlier. […]

[4] = plasma protein binding in human plasma

CN1CCN(c2ccc(Nc3ncc(Cl)c(NC[C@H]4CCCO4)n3)cc2)CC1 [(R)-9b]
sensitivity (cell proliferation) [1]: loss of proliferation | sensitivity (cell proliferation) [2]: loss of proliferation | pY88-H4 marks at CDC20, CCNB1 and CCNB2 gene loci (ChIP-qPCR) [3]: significantly compromised | remaining after 6 h of treatment ([4]; 6 h): over 96% | fraction unbound ([4]; human, plasma, Plasma Protein Binding (PPB)): 0.17
